From patent publication US10538535B2, “Antitumoral compounds” (priority 2017, dated 2020)
Where two headings read alike, the source gives them in different places.

Legend:
[1] = MTD (Maximum Tolerated Dose) determination, single iv administration; format: in vivo; conditions: female, mouse, in vivo; mice; iv/SD
Text: Female CD-1 or Athymic Nude-Fox1 nu/nu mice (Envigo) were utilized for all experiments. […] Animals were acclimated for five days prior to being individually tattoo-identified. Animal protocols were reviewed and approved according to the regional Institutional Animal Care and Use Committees.
Mice were randomly allocated into experimental groups and intravenously administered, once for the MTD (Maximum Tolerated Dose) determination or one administration a week during three consecutive weeks, for the MTMD (Maximum Tolerated Multiple Dose) determination study. The animals were administered with white formulation or with compound dissolved in the experimental formulation at different concentrations. The volume administered was always 10 mL/kg. Once administered, animals were monitored for clinical signs of systemic toxicity, changes in body weight and mortality up to 14 days after the administration.

H82 tumors = assay: In vivo xenograft, human lung (SCLC) H82
Method: Female athymic nu/nu mice (Harlan Laboratories Models, S. L. Barcelona, Spain or Envigo, Spain) were utilized for all experiments. Animal were housed in individually ventilated cages Sealsafe® Plus, Techniplast S.P.A.), up to ten per cage on a 12-hour light-dark cycle at 21-23° C. and 40-60% humidity. Mice were allowed free access to irradiated standard rodent diet (Tecklad 2914C) and sterilized water. Animals were acclimated for at least 5 days prior to tumor implantation with a tumor cell suspension.
H82 cells were grown as a suspension and maintained by addition of fresh medium, as the cell density increases, every 2 to 3 days. Every week, culture was reestablished by centrifugation of the suspension with subsequent resuspension in fresh medium at a concentration of 1×10^5 cell/ml. Animals were subcutaneously implanted (on the right flank using 26 G needle and a 1 cc syringe) at 4-6 weeks of age with 5×10^6 H82 cells, suspended in 0.05 mL of a solution consisting of 50% Matrigel® (Corning Incorporated Life Sciences) and 50% medium without serum or antibiotics.
(§1) Treatment tolerability was assessed by monitoring body weight evolution, clinical signs of systemic toxicity, as well as evidences of local damage in the injection site.
(§2) In xenograft studies with other cell lines: • Tumor volume was calculated using the equation (a·b^2)/2, where a: length (longest diameter) and b: width (shortest diameter) were measured in mm by using digital caliper (Fowler Sylvac, S235PAT).
(§3) Treatments producing >20% lethality and/or 20% net body weight loss were considered toxic.
Tables and figures summarize the data obtained from complete experimental groups, i.e. those groups keeping the initial number of animals, n=8-10.

Method for MDA-MB-231 tumors: Female athymic nu/nu mice (Harlan Laboratories Models, S. L. Barcelona, Spain or Envigo, Spain) were utilized for all experiments. Animal were housed in individually ventilated cages Sealsafe® Plus, Techniplast S.P.A.), up to ten per cage on a 12-hour light-dark cycle at 21-23° C. and 40-60% humidity. […] Animals were acclimated for at least 5 days prior to tumor implantation with a tumor cell suspension.
MDA-MB-231 cells were maintained in vitro at 37° C. with 5% CO2 in Dulbecco's Modified Eagle's Medium (Sigma-Aldrich, Co). Culture cells were passaged every 3 to 5 days upon reaching confluence.
as §1, §2, §3

COc1c(C)cc2c(c1O)[C@@H]1[C@@H]3[C@@H]4SC[C@]5(N[C@H](C)Cc6c5[nH]c5ccccc65)C(=O)OC[C@@H](c5c6c(c(C)c(OC(C)=O)c54)OCO6)N3[C@@H](O)[C@H](C2)N1C [C]
MTD at 14 days [1]: 3 mg/kg
Median Tumor Volume (MDA-MB-231 tumors; iv, 3 mg/kg, 0 h): 149.4 mm^3
Median Tumor Volume (MDA-MB-231 tumors; iv, 3 mg/kg, 48 h): 217.1 mm^3
Median Tumor Volume (MDA-MB-231 tumors; iv, 3 mg/kg, 120 h): 281.3 mm^3
Median Tumor Volume (MDA-MB-231 tumors; iv, 3 mg/kg, 168 h): 338.6 mm^3
Median Tumor Volume (MDA-MB-231 tumors; iv, 3 mg/kg, 336 h): 436.9 mm^3
Median Tumor Volume (MDA-MB-231 tumors; iv, 3 mg/kg, 384 h): 585.7 mm^3
Median Tumor Volume (MDA-MB-231 tumors; iv, 3 mg/kg, 456 h): 774.7 mm^3
Median Tumor Volume (MDA-MB-231 tumors; iv, 3 mg/kg, 504 h): 965.9 mm^3
Median Tumor Volume (MDA-MB-231 tumors; iv, 3 mg/kg, 552 h): 1215.2 mm^3
Median Tumor Volume (MDA-MB-231 tumors; iv, 3 mg/kg, 672 h): 1785.3 mm^3
Median Tumor Volume (MDA-MB-231 tumors; iv, 3 mg/kg, 720 h): 2037.1 mm^3
Median Tumor Volume (H82 tumors; Table 50, Day 0, iv weekly, 39-S […], C 3 mg/Kg): 170.5 mm^3
Median Tumor Volume (H82 tumors; Table 50, Day 2, iv weekly, 39-S […], C 3 mg/Kg): 265.3 mm^3
Median Tumor Volume (H82 tumors; Table 50, Day 5, iv weekly, 39-S […], C 3 mg/Kg): 488.7 mm^3
Median Tumor Volume (H82 tumors; Table 50, Day 7, iv weekly, 39-S […], C 3 mg/Kg): 760.0 mm^3
Median Tumor Volume (H82 tumors; Table 50, Day 9, iv weekly, 39-S […], C 3 mg/Kg): 899.5 mm^3
Median Tumor Volume (H82 tumors; Table 50, Day 12, iv weekly, 39-S […], C 3 mg/Kg): 1038.5 mm^3
Median Tumor Volume (H82 tumors; Table 50, Day 14, iv weekly, 39-S […], C 3 mg/Kg): 1213.4 mm^3
Median Tumor Volume (H82 tumors; Table 50, Day 16, iv weekly, 39-S […], C 3 mg/Kg): 1256.4 mm^3
Median Tumor Volume (H82 tumors; Table 50, Day 19, iv weekly, 39-S […], C 3 mg/Kg): 1741.5 mm^3
Median Tumor Volume (H82 tumors; Table 50, Day 21, iv weekly, 39-S […], C 3 mg/Kg): 1878.8 mm^3
Median Tumor Volume (H82 tumors; Table 50, Day 23, iv weekly, 39-S […], C 3 mg/Kg): 2057.0 mm^3

COc1c(C)cc2c(c1O)[C@@H]1[C@@H]3[C@@H]4SC[C@]5(N[C@@H](C)Cc6c5[nH]c5ccccc65)C(=O)OC[C@@H](c5c6c(c(C)c(OC(C)=O)c54)OCO6)N3[C@@H](O)[C@H](C2)N1C [D]
Median Tumor Volume (MDA-MB-231 tumors; Table 22, Day 0, iv Days 0, 7, 14): 129.5 mm^3
Median Tumor Volume (MDA-MB-231 tumors; Table 22, Day 7, iv Days 0, 7, 14): 147.9 mm^3
Median Tumor Volume (MDA-MB-231 tumors; Table 22, Day 14, iv Days 0, 7, 14): 186.4 mm^3
Median Tumor Volume (MDA-MB-231 tumors; Table 22, Day 21, iv Days 0, 7, 14): 136.5 mm^3
Median Tumor Volume (MDA-MB-231 tumors; Table 22, Day 28, iv Days 0, 7, 14): 290.7 mm^3
Median Tumor Volume (MDA-MB-231 tumors; Table 22, Day 35, iv Days 0, 7, 14): 431.7 mm^3
Median Tumor Volume (MDA-MB-231 tumors; Table 22, Day 42, iv Days 0, 7, 14): 770.1 mm^3
Median Tumor Volume (MDA-MB-231 tumors; Table 22, Day 49, iv Days 0, 7, 14): 970.0 mm^3
Median Tumor Volume (MDA-MB-231 tumors; Table 22, Day 56, iv Days 0, 7, 14): 1461.9 mm^3
Median Tumor Volume (MDA-MB-231 tumors; Table 22, Day 63, iv Days 0, 7, 14): 1526.4 mm^3
Median Tumor Volume (MDA-MB-231 tumors; iv, 0.5 mg/kg, 0 h): 149.6 mm^3
Median Tumor Volume (MDA-MB-231 tumors; iv, 0.5 mg/kg, 48 h): 217.2 mm^3
Median Tumor Volume (MDA-MB-231 tumors; iv, 0.5 mg/kg, 120 h): 284.5 mm^3
Median Tumor Volume (MDA-MB-231 tumors; iv, 0.5 mg/kg, 168 h): 310.0 mm^3
Median Tumor Volume (MDA-MB-231 tumors; iv, 0.5 mg/kg, 336 h): 237.7 mm^3
Median Tumor Volume (MDA-MB-231 tumors; iv, 0.5 mg/kg, 384 h): 261.2 mm^3
Median Tumor Volume (MDA-MB-231 tumors; iv, 0.5 mg/kg, 456 h): 251.3 mm^3
Median Tumor Volume (MDA-MB-231 tumors; iv, 0.5 mg/kg, 504 h): 219.9 mm^3
Median Tumor Volume (MDA-MB-231 tumors; iv, 0.5 mg/kg, 552 h): 221.8 mm^3
Median Tumor Volume (MDA-MB-231 tumors; iv, 0.5 mg/kg, 672 h): 320.3 mm^3
Median Tumor Volume (MDA-MB-231 tumors; iv, 0.5 mg/kg, 720 h): 401.6 mm^3
Median Tumor Volume (MDA-MB-231 tumors; iv, 0.5 mg/kg, 840 h): 629.2 mm^3
Median Tumor Volume (MDA-MB-231 tumors; iv, 0.5 mg/kg, 888 h): 670.7 mm^3
Median Tumor Volume (MDA-MB-231 tumors; iv, 0.5 mg/kg, 960 h): 669.9 mm^3
Median Tumor Volume (MDA-MB-231 tumors; iv, 0.5 mg/kg, 1056 h): 798.1 mm^3
Median Tumor Volume (MDA-MB-231 tumors; iv, 0.5 mg/kg, 1128 h): 857.7 mm^3
Median Tumor Volume (MDA-MB-231 tumors; iv, 0.5 mg/kg, 1176 h): 870.7 mm^3
Median Tumor Volume (MDA-MB-231 tumors; iv, 0.5 mg/kg, 1224 h): 925.8 mm^3
Median Tumor Volume (MDA-MB-231 tumors; iv, 0.5 mg/kg, 1296 h): 1005.4 mm^3
Median Tumor Volume (MDA-MB-231 tumors; iv, 0.5 mg/kg, 1344 h): 1064.2 mm^3
Median Tumor Volume (MDA-MB-231 tumors; iv, 0.5 mg/kg, 1392 h): 1235.6 mm^3
Median Tumor Volume (MDA-MB-231 tumors; iv, 0.5 mg/kg, 1464 h): 1367.8 mm^3
Median Tumor Volume (MDA-MB-231 tumors; iv, 0.5 mg/kg, 1512 h): 1553.7 mm^3
Median Tumor Volume (H82 tumors; Table 33, Day 0.0, iv Days 0, 7, 14, 12-R 0.05 mg/kg, Compound D 0.5 mg/kg): 169.4 mm^3
Median Tumor Volume (H82 tumors; Table 33, Day 2.0, iv Days 0, 7, 14, 12-R 0.05 mg/kg, Compound D 0.5 mg/kg): 340.6 mm^3
Median Tumor Volume (H82 tumors; Table 33, Day 5.0, iv Days 0, 7, 14, 12-R 0.05 mg/kg, Compound D 0.5 mg/kg): 443.3 mm^3
Median Tumor Volume (H82 tumors; Table 33, Day 7.0, iv Days 0, 7, 14, 12-R 0.05 mg/kg, Compound D 0.5 mg/kg): 496.2 mm^3
Median Tumor Volume (H82 tumors; Table 33, Day 9.0, iv Days 0, 7, 14, 12-R 0.05 mg/kg, Compound D 0.5 mg/kg): 614.1 mm^3
Median Tumor Volume (H82 tumors; Table 33, Day 12.0, iv Days 0, 7, 14, 12-R 0.05 mg/kg, Compound D 0.5 mg/kg): 665.5 mm^3
Median Tumor Volume (H82 tumors; Table 33, Day 14.0, iv Days 0, 7, 14, 12-R 0.05 mg/kg, Compound D 0.5 mg/kg): 1041.6 mm^3
Median Tumor Volume (H82 tumors; Table 33, Day 16.0, iv Days 0, 7, 14, 12-R 0.05 mg/kg, Compound D 0.5 mg/kg): 1151.2 mm^3
Median Tumor Volume (H82 tumors; Table 33, Day 19.0, iv Days 0, 7, 14, 12-R 0.05 mg/kg, Compound D 0.5 mg/kg): 1516.7 mm^3
Median Tumor Volume (H82 tumors; Table 33, Day 21.0, iv Days 0, 7, 14, 12-R 0.05 mg/kg, Compound D 0.5 mg/kg): 1748.0 mm^3
Median Tumor Volume (H82 tumors; Table 57, Day 0, iv weekly, 47-R 0.1 mg/Kg, Compound D 0.5 mg/Kg): 169.4 mm^3
Median Tumor Volume (H82 tumors; Table 57, Day 2, iv weekly, 47-R 0.1 mg/Kg, Compound D 0.5 mg/Kg): 340.6 mm^3
Median Tumor Volume (H82 tumors; Table 57, Day 5, iv weekly, 47-R 0.1 mg/Kg, Compound D 0.5 mg/Kg): 443.3 mm^3
Median Tumor Volume (H82 tumors; Table 57, Day 7, iv weekly, 47-R 0.1 mg/Kg, Compound D 0.5 mg/Kg): 496.2 mm^3
Median Tumor Volume (H82 tumors; Table 57, Day 9, iv weekly, 47-R 0.1 mg/Kg, Compound D 0.5 mg/Kg): 614.1 mm^3
Median Tumor Volume (H82 tumors; Table 57, Day 12, iv weekly, 47-R 0.1 mg/Kg, Compound D 0.5 mg/Kg): 665.5 mm^3
Median Tumor Volume (H82 tumors; Table 57, Day 14, iv weekly, 47-R 0.1 mg/Kg, Compound D 0.5 mg/Kg): 1041.6 mm^3
Median Tumor Volume (H82 tumors; Table 57, Day 16, iv weekly, 47-R 0.1 mg/Kg, Compound D 0.5 mg/Kg): 1151.2 mm^3
Median Tumor Volume (H82 tumors; Table 57, Day 19, iv weekly, 47-R 0.1 mg/Kg, Compound D 0.5 mg/Kg): 1516.7 mm^3
Median Tumor Volume (H82 tumors; Table 57, Day 21, iv weekly, 47-R 0.1 mg/Kg, Compound D 0.5 mg/Kg): 1748.0 mm^3
